# Experimental data taken from US20090239840A1, “AMINO SUBSTITUTED DIARYL[a,d]CYCLOHEPTENE ANALOGS AS [sequence] AGONISTS AND METHODS OF TREATMENT OF NEUROPSYCHIATRIC DISORDERS” (ACADIA PHARMACEUTICALS, INC., priority 2003, published 2009).
# pEC50: −log10 of the molar value. Read-outs that look alike come from different tables or passages of the source.
# Columns and labels:
# [1] = target: T1, muscarinic M2 receptor (Homo sapiens, UniProt P08172); test: R-SAT functional screen, M2; format: cell-based; conditions: for Emax: read-out: M2 eff (efficacy); for EC50: read-out: M2 pEC50 (converted)
# T1 construct: expressed in transfected cells
# T1 sequence (P08172 1-466): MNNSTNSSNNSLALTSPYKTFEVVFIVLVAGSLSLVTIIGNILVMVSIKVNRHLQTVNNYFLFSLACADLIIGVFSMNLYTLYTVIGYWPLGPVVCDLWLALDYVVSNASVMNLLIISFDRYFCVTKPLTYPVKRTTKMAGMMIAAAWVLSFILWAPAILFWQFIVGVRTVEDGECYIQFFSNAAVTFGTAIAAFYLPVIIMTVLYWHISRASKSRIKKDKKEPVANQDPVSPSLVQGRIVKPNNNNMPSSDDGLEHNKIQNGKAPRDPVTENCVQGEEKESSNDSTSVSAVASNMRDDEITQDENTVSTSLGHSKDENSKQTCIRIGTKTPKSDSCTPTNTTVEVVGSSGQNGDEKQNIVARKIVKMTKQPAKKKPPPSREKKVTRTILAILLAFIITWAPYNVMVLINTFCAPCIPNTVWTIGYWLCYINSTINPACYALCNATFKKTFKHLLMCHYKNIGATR
# Method: (§1) Several compounds disclosed herein were evaluated for activity at muscarinic receptors using Receptor Selection and Amplification Technology (R-SAT) as described in U.S. Pat. No. 5,707,798, the disclosure of which is incorporated herein by reference in its entirety. The efficacy (eff) and potency (expressed as pEC50) of these compounds are presented in Table 1 at M1, M2, and M3 receptors.
# [2] = target: T2, muscarinic M1 receptor (Homo sapiens, UniProt P11229); test: R-SAT functional screen, M1; format: cell-based; conditions: for Emax: read-out: M1 eff (efficacy); for EC50: read-out: M1 pEC50 (converted)
# T2 construct: expressed in transfected cells
# T2 sequence (P11229 1-460): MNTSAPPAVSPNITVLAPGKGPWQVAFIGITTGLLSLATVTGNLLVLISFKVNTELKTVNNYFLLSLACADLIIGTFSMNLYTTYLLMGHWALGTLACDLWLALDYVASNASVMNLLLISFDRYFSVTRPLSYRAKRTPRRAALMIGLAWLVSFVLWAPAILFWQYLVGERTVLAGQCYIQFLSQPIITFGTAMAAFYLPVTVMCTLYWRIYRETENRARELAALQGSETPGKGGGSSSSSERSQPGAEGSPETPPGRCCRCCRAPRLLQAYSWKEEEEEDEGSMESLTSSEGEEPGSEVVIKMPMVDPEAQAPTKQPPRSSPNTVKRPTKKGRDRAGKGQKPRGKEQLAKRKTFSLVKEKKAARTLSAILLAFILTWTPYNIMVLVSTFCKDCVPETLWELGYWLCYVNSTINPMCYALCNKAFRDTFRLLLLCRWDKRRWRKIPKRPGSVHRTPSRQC
# Method: as §1
SMILES,Emax ([1]; R-SAT),Emax ([2]; R-SAT),EC50 ([2]; R-SAT),also measured
"Clc1ccc2c(c1)N=C(N1CCNC(c3ccccc3)C1)c1ccccc1N2 (stereo not drawn) [8-Chloro-11-(3-phenyl-piperazin-1-yl)-5H-dibenzo[b,e][1,4]diazepine]",23%,5%,–,–
"Clc1ccc2c(c1)N=C(NC[C@@H]1CCCN1)c1ccccc1N2 [(8-Chloro-5H-dibenzo[b,e][1,4]diazepin-11-yl)-(S)-1-pyrrolidin-2-yl-methyl-amine]",23%,77%,501 nM,–
"CN(C)CCNC1=Nc2cc(F)ccc2Nc2ccccc21 [N′-(8-Fluoro-5H-dibenzo[b,e][1,4]diazepine-11-yl)-N,N-dimethyl-ethane-1,2-diamine]",21%,7%,–,–
"Ic1ccc2c(c1)N=C(N1CCNCC1)c1ccccc1N2 [8-Iodo-11-(piperazin-1-yl)-5H-dibenzo[b,e][1,4]diazepine]",187%,75%,63.1 nM,EC50 ([1]; R-SAT): 1000 nM
"CN1CCN(C2=Nc3cc(Cl)ccc3Oc3ccccc32)CC1 [8-Chloro-11-(4-methyl-piperazin-1-yl)-dibenzo[b,f][1,4]oxazepine]",46%,13%,–,EC50 ([1]; R-SAT): 1580 nM
"Brc1ccc2c(c1)N=C(N1CCNCC1)CC(c1ccccc1)N2 (stereo not drawn) [7-Bromo-2-phenyl-4-(piperazine-1-yl)-2,3-dihydro-1H-benzo[b][1,4]diazepine]",19%,3%,–,–
"Fc1ccc2c(c1)C(N1CCNCC1)=Nc1cc(Cl)ccc1N2 [8-Chloro-2-fluoro-11-(piperazin-1-yl)-5H-dibenzo[b,e][1,4]diazepine]",121%,32%,158 nM,EC50 ([1]; R-SAT): 3160 nM
"Clc1ccc2c(c1)C=C(N1CCNCC1)c1ccccc1N2 [2-Chloro-10-piperazin-1-yl-5H-dibenzo[b,f]azepin]",3%,2%,–,–
"C=CCN1c2ccc(Cl)cc2N=C(N2CCNCC2)c2ccccc21 [5-Allyl-8-chloro-11-(piperazin-1-yl)-5H-dibenzo[b,e][1,4]diazepine]",46%,12%,–,EC50 ([1]; R-SAT): 1580 nM
"Fc1ccc(C2=Nc3cc(Cl)ccc3Nc3ccccc32)cc1 [8-Chloro-11-(4-fluorophenyl)-5H-dibenzo[b,e][1,4]diazepine]",4%,13%,–,–
"N#Cc1ccc2c(c1)N=C(N1CCNCC1)c1ccccc1N2 [11-(piperazin-1-yl)-5H-dibenzo[b,e][1,4]diazepine-8-carbonitrile]",106%,49%,251 nM,EC50 ([1]; R-SAT): 1000 nM
"Clc1ccc2c(c1)N=C(c1cn[nH]c1)c1ccccc1N2 [8-Chloro-11-(1H-pyrazol-4-yl)-5H-dibenzo[b,e][1,4]diazepine]",3%,9%,–,–
"Clc1ccc2c(c1)N=C(N1CCNCC1)c1cc(I)ccc1N2 [2-Iodo-8-chloro-11-(piperazin-1-yl)-5H-dibenzo[b,e][1,4]diazepine]",10%,3%,–,–
"CN1c2ccc(Br)cc2N=C(N2CCNCC2)c2ccccc21 [8-Bromo-5-methyl-11-(piperazin-1-yl)-5H-dibenzo[b,e][1,4]diazepine]",75%,92%,398 nM,EC50 ([1]; R-SAT): 2510 nM
"NC1CCN(C2=Nc3cc(Cl)ccc3Nc3ccccc32)C1 (stereo not drawn) [1-(8-Chloro-5H-dibenzo[b,e][1,4]diazepin-11-yl)-pyrrolidin-3-yl-amine]",36%,8%,–,EC50 ([1]; R-SAT): 3160 nM
"c1ccc2c(c1)Sc1cc3c(cc1N=C2N1CCNCC1)OCCO3 [11-(piperazin-1-yl)-2,3-dihydro-1,4-benzodioxino[6,7-b][1,4]benzothiazepin]",28%,6%,–,–
"Clc1ccc2c(c1)N=C(N1CC3CC1CN3)c1ccccc1N2 (stereo not drawn) [8-Chloro-11-(2,5-diaza-bicyclo[2.2.1]hept-2-yl)-5H-dibenzo[b,e][1,4]diazepine]",49%,34%,251 nM,EC50 ([1]; R-SAT): 2510 nM
"Cc1ccc2c(c1)C(N1CCNCC1)=Nc1ccc(Cl)cc1N2 [7-Chloro-2-methyl-11-(piperazin-1-yl)-5H-dibenzo[b,e][1,4]diazepine]",5%,-3%,–,–

SMILES,Emax ([1]; R-SAT),Emax ([2]; R-SAT),EC50 ([2]; R-SAT),also measured
"CNCCNC1=Nc2cc(Cl)ccc2Nc2ccccc21 [N′-(8-Chloro-5H-dibenzo[b,e][1,4]diazepine-11-yl)-N-methyl-ethane-12-diamine]",8%,5%,–,–
"Clc1ccc2c(c1)Nc1ccc(Br)cc1N=C2N1CCNCC1 [8-Bromo-3-chloro-11-(piperazin-1-yl)-5H-dibenzo[b,e][1,4]diazepine]",34%,31%,251 nM,EC50 ([1]; R-SAT): 316 nM
"Clc1ccc2c(c1)N=C(N1CCCNCC1)c1ccccc1N2 [8-Chloro-11-[1,4]diazepam-1-yl-5H-dibenzo[b,e][1,4]diazepine]",–,–,–,pEC50 [1]: 6.20; Emax [1]: 82%; pEC50 [2]: 7.00; Emax [2]: 37%
"CN(C)CCNC1=Nc2cc(Cl)ccc2Nc2ccccc21 [N′-(8-Chloro-5H-dibenzo[b,e][1,4]diazepine-11-yl)-N,N-dimethyl-ethane-1,2-diamine]",11%,4%,–,–
"FC(F)(F)c1ccc2c(c1)N=C(N1CCNCC1)c1cc(Cl)ccc1N2 [2-Chloro-11-(piperazin-1-yl)-8-trifluoromethyl-5H-dibenzo[b,e][1,4]diazepine]",19%,10%,–,–
"O=S(=O)(Oc1ccc2c(c1)C(N1CCNCC1)=Nc1ccccc1N2)C(F)(F)F [2-(Trifluoromethanesulfonyloxy)-11-(piperazin-1-yl)-5H-dibenzo[b,e][1,4]diazepine]",9%,-8%,–,–
"CC1CC(N2CCNCC2)=Nc2cc(Br)ccc2N1 (stereo not drawn) [7-Bromo-2-methyl-(piperazin-1-yl)-2,3-dihydro-1H-benzo[b][1,4]diazepine]",23%,16%,–,–
"Brc1ccc2c(c1)N=C(N1CCNCC1)C1CCCC1N2 (stereo not drawn) [7-Bromo-10-(piperazin-1-yl)-1,2,3,3a,4,10a-hexahydro-benzo[b]cyclopenta[e][1,4]diazepine]",12%,50%,1580 nM,–
"Clc1ccc2c(c1)N=C(N1CCOCC1)c1ccccc1N2 [8-Chloro-11-(morpholin-4-yl)-5H-dibenzo[b,e][1,4]diazepine]",6%,11%,–,–
"Clc1ccc2c(c1)Nc1ccccc1C(N1CCNCC1)=N2 [7-Chloro-11-(piperazin-1-yl)-5H-dibenzo[b,e][1,4]diazepine]",53%,48%,251 nM,–
Clc1ccc2c(c1)N=C(N1CCNCC1)c1ccccc1N2Cc1ccccc1,16%,41%,501 nM,–
"Clc1ccc2c(c1)Nc1ccc(Cl)cc1C(N1CCNCC1)=N2 [2,7-Dichloro-11-(piperazin-1-yl)-5H-dibenzo[b,e][1,4]diazepine]",-14%,-2%,–,–
"O=S(=O)(Oc1ccc2c(c1)C(N1CCNCC1)=Nc1cc(Cl)ccc1N2)C(F)(F)F [8-Chloro-2-(trifluoromethanesulfonyloxy)-11-(piperazin-1-yl)-5H-dibenzo[b,e][1,4]diazepine]",16%,-2%,–,–
"Clc1ccc2c(c1)N=C(NC[C@H]1CCCN1)c1ccccc1N2 [(8-Chloro-5H-dibenzo[b,e][1,4]diazepin-11-yl)-(R)-1-pyrrolidin-2-yl-methyl-amine]",5%,4%,–,–
"Clc1ccc2c(c1)N=C(N1CCNCC1)c1ccc(Cl)cc1N2 [3,8-Dichloro-11-(piperazin-1-yl)-5H-dibenzo[b,e][1,4]diazepine]",58%,34%,126 nM,EC50 ([1]; R-SAT): 1580 nM
"C[C@@H]1CN(C2=Nc3cc(Cl)ccc3Nc3ccccc32)[C@@H](C)CN1 (relative stereo) [8-Chloro-11-(trans-2,5-dimethyl-piperazin-1-yl)-5H-dibenzo[b,e][1,4]diazepine]",24%,8%,–,–
"Clc1ccc2c(c1)N=C(C1CCNCC1)c1ccccc1N2Cc1ccccc1 [5-Benzyl-8-chloro-11-(piperidin-4-yl)-5H-dibenzo[b,e][1,4]diazepine]",5%,12%,–,–
"Clc1ccc2c(c1)N=C(N1CCCCC1)c1ccccc1N2 [8-Chloro-11-(piperidin-1-yl)-5H-dibenzo[b,e][1,4]diazepine]",9%,47%,1580 nM,–
